Assay [1] has as its system rats with a standardized laminectomy. Kind of assay: laminectomy model on the rat, infliximab treatment: wound healing and scar formation. The format is in vivo. The settings on record: laminectomy of 4th lumbar vertebra, 4 mg/kg intraperitoneal. The method, then: Four rats were anaesthetized with a standardized combination of pentobarbital and diazepam. The skin on the back was shaved. Through a midline incision, a laminectomy of the 4th lumbar vertebra was performed. The spinal muscles and the skin was sutured. Two rats received an intraperitoneal injection of 4 mg/kg of infliximab. Infliximab is a monoclonal antibody towards TNF with an inhibiting action with a duration of 1-2 months following single administration in the dosage used. The other two rats received an intraperitoneal injection of saline. After 2 weeks, the rats were reanaesthesized and wound healing and scar formation were evaluated by a person being unaware of the experimental protocol. Wound healing was considered normal in both groups. […] In the non-treated group, there was a somewhat more dense lump of connective tissue that was adherent to the spinal dura mater.

Assay [2] deals with TNF. The settings on record: following single administration in the dosage used (4 mg/kg); cited from earlier work.

This is an account of results in patent US7994116B2, “Methods for reduction of adhesion formation using cytokine inhibitors” (Pharmasurgics In Sweden AB, priority 2002, dated 2011).

As to infliximab, in assay [1] (after 2 weeks, saline group: adherent to the dura mater), the “adhesion of connective tissue to the spinal dura mater” value is “did not adhere to the spinal dura mater and was easy to remove”. Besides, in assay [1] (after 2 weeks, saline group: somewhat more dense lump of connective tissue), the “scar formation: tissue filling the previous location of the lamina” value is “soft connective tissue”. Further, the wound healing result in assay [1] (evaluated after 2 weeks, blinded) is “normal”. In addition, the “duration of inhibiting action towards TNF” value in assay [2] is listed as 1-2 months.
